PubChem BioAssay AID1845205 (Molecular Pharmacology Branch, DTP, NCI, 2023)
Values joined by “and” are separate entries in the source; they are usually repeats but may differ in a detail not shown here. Equal values may be shown once.

System: MPNST multicellular tumor spheroids, viability % test/control
Assay: Anticancer human tumor MPNST cell line growth inhibition;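 note: spheroids exposed to agents for seven days after three days of growth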;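 for viability, T/C: luminescence signal used as surrogate for viable cell amount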
Details: for IC50: curve of first compound; for viability, T/C: stronger effect = lower value
In short: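 Complex tumor spheroids combined malignant cells with endothelial cells and mesenchymal stem cells. DNA-damaging drugs and DNA repair inhibitors were tested alone and in combination, at half-log dilutions down from clinical Cmax (top 10 microM if Cmax unknown), 0.25% DMSO final.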

[1] = second compound 0.003 µM, first compound 0.0316 µM
[2] = second compound 0.003 µM, first compound 0.1 µM
[3] = second compound 0.003 µM, first compound 0.316 µM
[4] = second compound 0.003 µM, first compound 1 µM
[5] = second compound 0.003 µM, first compound 3.16 µM
[6] = second compound 0.003 µM, first compound 10 µM
[7] = second compound 0.00949 µM, first compound 0.0316 µM
[8] = second compound 0.00949 µM, first compound 0.1 µM
[9] = second compound 0.00949 µM, first compound 0.316 µM
[10] = second compound 0.00949 µM, first compound 1 µM
[11] = second compound 0.00949 µM, first compound 3.16 µM
[12] = second compound 0.00949 µM, first compound 10 µM
[13] = second compound 0.03 µM, first compound 0.0316 µM
[14] = second compound 0.03 µM, first compound 0.1 µM
[15] = second compound 0.03 µM, first compound 0.316 µM
[16] = second compound 0.03 µM, first compound 1 µM
[17] = second compound 0.03 µM, first compound 3.16 µM
[18] = second compound 0.03 µM, first compound 10 µM
[19] = second compound 0.0949 µM, first compound 0.0316 µM
[20] = second compound 0.0949 µM, first compound 0.1 µM
[21] = second compound 0.0949 µM, first compound 0.316 µM
[22] = second compound 0.0949 µM, first compound 1 µM
[23] = second compound 0.0949 µM, first compound 3.16 µM
[24] = second compound 0.0949 µM, first compound 10 µM
[25] = second compound 0.3 µM, first compound 0.0316 µM
[26] = second compound 0.3 µM, first compound 0.1 µM
[27] = second compound 0.3 µM, first compound 0.316 µM
[28] = second compound 0.3 µM, first compound 1 µM
[29] = second compound 0.3 µM, first compound 3.16 µM
[30] = second compound 0.3 µM, first compound 10 µM

[2H]c1nc(C)nc([2H])c1-c1cc(NC[C@@H](C)c2cccc3c(C(=O)NC)ccnc23)ncn1 + CC[C@@]1(O)C(=O)OCc2c1cc1n(c2=O)Cc2cc3c(CN(C)C)c(O)ccc3nc2-1
IC50 (second compound 0.003 µM): > 10000 nM | IC50 (second compound 0.00949 µM): > 10000 nM | IC50 (second compound 0.03 µM): < 31.6 nM | IC50 (second compound 0.0949 µM): < 31.6 nM | IC50 (second compound 0.3 µM): < 31.6 nM | viability, T/C [1]: 96.5% | viability, T/C [2]: 107% | viability, T/C [3]: 93.5% | viability, T/C [4]: 99.7% | viability, T/C [5]: 92.4% | viability, T/C [6]: 67.8% | viability, T/C [7]: 74.5% | viability, T/C [8]: 58.1% | viability, T/C [9]: 77.8% | viability, T/C [10]: 74.2% | viability, T/C [11]: 49.4% | viability, T/C [12]: 59.9% | viability, T/C [13]: 39.3% | viability, T/C [14]: 39.7% | viability, T/C [15]: 37.6% | viability, T/C [16]: 36.4% | viability, T/C [17]: 37.8% | viability, T/C [18]: 36.2% | viability, T/C [19]: 38.5% | viability, T/C [20]: 37.5% | viability, T/C [21]: 39.4% | viability, T/C [22]: 35.4% | viability, T/C [23]: 34% | viability, T/C [24]: 35.1% | viability, T/C [25]: 33.1% | viability, T/C [26]: 31% | viability, T/C [27]: 29.9% | viability, T/C [28]: 30.8% | viability, T/C [29]: 28.1% | viability, T/C [30]: 25.9%

CC1COCCN1c1cc(-c2ccnn2C)c2ccnc(-c3ccn[nH]3)c2n1 (stereo unspecified) + COc1cc2c(cc1O)CCNC21CSC2c3c(OC(C)=O)c(C)c4c(c3C(COC1=O)N1C(O)C3Cc5cc(C)c(OC)c(O)c5C(C21)N3C)OCO4
IC50 (second compound 30 pM): < 31.6 nM | IC50 (second compound 94.9 pM): < 31.6 nM | IC50 (second compound 0.0003 µM): < 31.6 nM | IC50 (second compound 0.000949 µM): < 31.6 nM | IC50 (second compound 0.003 µM): < 31.6 nM | viability, T/C (second compound 30 pM, first compound 0.0316 µM): 47.3% | viability, T/C (second compound 30 pM, first compound 0.1 µM): 48.1% | viability, T/C (second compound 30 pM, first compound 0.316 µM): 42% | viability, T/C (second compound 30 pM, first compound 1 µM): 39.2% | viability, T/C (second compound 30 pM, first compound 3.16 µM): 31.1% | viability, T/C (second compound 30 pM, first compound 10 µM): 25.6% | viability, T/C (second compound 94.9 pM, first compound 0.0316 µM): 47.8% | viability, T/C (second compound 94.9 pM, first compound 0.1 µM): 44.8% | viability, T/C (second compound 94.9 pM, first compound 0.316 µM): 39.4% | viability, T/C (second compound 94.9 pM, first compound 1 µM): 33% | viability, T/C (second compound 94.9 pM, first compound 3.16 µM): 29.2% | viability, T/C (second compound 94.9 pM, first compound 10 µM): 25.6% | viability, T/C (second compound 0.0003 µM, first compound 0.0316 µM): 47.8% | viability, T/C (second compound 0.0003 µM, first compound 0.1 µM): 44.9% | viability, T/C (second compound 0.0003 µM, first compound 0.316 µM): 38.7% | viability, T/C (second compound 0.0003 µM, first compound 1 µM): 36.9% | viability, T/C (second compound 0.0003 µM, first compound 3.16 µM): 28.8% | viability, T/C (second compound 0.0003 µM, first compound 10 µM): 24.6% | viability, T/C (second compound 0.000949 µM, first compound 0.0316 µM): 45.4% | viability, T/C (second compound 0.000949 µM, first compound 0.1 µM): 41.2% | viability, T/C (second compound 0.000949 µM, first compound 0.316 µM): 39.4% | viability, T/C (second compound 0.000949 µM, first compound 1 µM): 31.3% | viability, T/C (second compound 0.000949 µM, first compound 3.16 µM): 24.2% | viability, T/C (second compound 0.000949 µM, first compound 10 µM): 20.7% | viability, T/C [1]: 12.2% | viability, T/C [2]: 11.1% | viability, T/C [3]: 10.5% | viability, T/C [4]: 6.65% | viability, T/C [5]: 5.18% | viability, T/C [6]: 4.99%

CC1COCCN1c1cc(-c2ccnn2C)c2ccnc(-c3ccn[nH]3)c2n1 (stereo unspecified) + CC[C@@]1(O)C(=O)OCc2c1cc1n(c2=O)Cc2cc3c(CN(C)C)c(O)ccc3nc2-1
IC50 (second compound 0.003 µM): 56.2 nM | IC50 (second compound 0.00949 µM): 31.8 nM | IC50 (second compound 0.03 µM): < 31.6 nM | IC50 (second compound 0.0949 µM): < 31.6 nM | IC50 (second compound 0.3 µM): < 31.6 nM | viability, T/C [1]: 51% | viability, T/C [2]: 49.7% | viability, T/C [3]: 39.3% | viability, T/C [4]: 34.1% | viability, T/C [5]: 25.9% | viability, T/C [6]: 26.9% | viability, T/C [7]: 50.3% | viability, T/C [8]: 44% | viability, T/C [9]: 42.2% | viability, T/C [10]: 34.6% | viability, T/C [11]: 26.5% | viability, T/C [12]: 23.8% | viability, T/C [13]: 48.7% | viability, T/C [14]: 44.5% | viability, T/C [15]: 48.4% | viability, T/C [16]: 34.6% | viability, T/C [17]: 26.1% | viability, T/C [18]: 23.5% | viability, T/C [19]: 45.8% | viability, T/C [20]: 43.8% | viability, T/C [21]: 41% | viability, T/C [22]: 28.3% | viability, T/C [23]: 26.9% | viability, T/C [24]: 21.8% | viability, T/C [25]: 41.1% | viability, T/C [26]: 39.9% | viability, T/C [27]: 34% | viability, T/C [28]: 28.1% | viability, T/C [29]: 21.2% | viability, T/C [30]: 17.5%

O=C(c1cc(Cc2n[nH]c(=O)c3ccccc23)ccc1F)N1CCN(C(=O)C2CC2)CC1
viability, T/C (compound 0.0949 µM): 88.3% and 108% and 83.2% | viability, T/C (compound 0.3 µM): 75.1% and 84.1% and 60.3% | viability, T/C (compound 0.949 µM): 79.3% and 91.9% and 51.5% | viability, T/C (compound 3 µM): 95.2% and 96.5% and 51.2% | viability, T/C (compound 9.49 µM): 68.4% and 72.2% and 27.7% | viability, T/C (compound 30 µM): 49.3% and 56.8% and 28%

Cc1cc(C)c(CNC(=O)c2cc(-c3ccc(CN4CCOCC4)cc3)cc3c2cnn3C2CCCC2)c(=O)[nH]1 + CC[C@@]1(O)C(=O)OCc2c1cc1n(c2=O)Cc2cc3c(CN(C)C)c(O)ccc3nc2-1
IC50 (second compound 0.003 µM): > 10000 nM | IC50 (second compound 0.00949 µM): > 10000 nM | IC50 (second compound 0.03 µM): > 10000 nM | IC50 (second compound 0.0949 µM): > 10000 nM | IC50 (second compound 0.3 µM): < 31.6 nM | viability, T/C [1]: 86% | viability, T/C [2]: 79.4% | viability, T/C [3]: 88.8% | viability, T/C [4]: 83.2% | viability, T/C [5]: 93.3% | viability, T/C [6]: 87.5% | viability, T/C [7]: 80.3% | viability, T/C [8]: 70% | viability, T/C [9]: 91% | viability, T/C [10]: 71.4% | viability, T/C [11]: 76.1% | viability, T/C [12]: 78.9% | viability, T/C [13]: 55.4% | viability, T/C [14]: 54.6% | viability, T/C [15]: 50% | viability, T/C [16]: 53% | viability, T/C [17]: 58.2% | viability, T/C [18]: 68.2% | viability, T/C [19]: 51.8% | viability, T/C [20]: 52.1% | viability, T/C [21]: 51.1% | viability, T/C [22]: 52.4% | viability, T/C [23]: 50.3% | viability, T/C [24]: 58.3% | viability, T/C [25]: 41.7% | viability, T/C [26]: 41% | viability, T/C [27]: 43.2% | viability, T/C [28]: 37.8% | viability, T/C [29]: 42.6% | viability, T/C [30]: 45.4%
